The record followed here is patent publication US11708344B2, “Flavone derivatives for the treatment and prophylaxis of hepatitis B virus disease” (Hoffmann-La Roche Inc., priority 2018, dated 2023).

As a reminder, the IC50 is the concentration that inhibits the measured activity by half.

Data set [1] concerns HBeAg (surrogate marker for cccDNA) in HepDES19 cells. The data set can be described thus: Engineered HepDES19 primary screen assay (HBeAg ELISA). Particulars: Hepatitis B virus, HepDES19, 120 h, read-out: IC50 (HBeAg level, HepDES19 primary screen assay), HepDES19 cells, 5 days compound incubation, HBeAg ELISA. It counts as cell-based, HBV. The method in brief:
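HepDES19 cells were induced by Tet withdrawal for 8 days, then treated with half-log compound dilutions (1% DMSO final) for 5 days at 37 °C. HBeAg was measured by ELISA as the cccDNA surrogate, viability by CCK-8, and IC50 from a 4-parameter logistic fit.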

The nature of data set [2]: Human microsome stability assay. Particulars: human liver microsomes, 1 μM test compound, 0.5 mg/mL microsomal protein, 37° C., pH 7.4, 0-30 minutes. It counts as in vitro ADME. In outline: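 Compound (1 μM) incubated at 37 °C with human liver microsomes (0.5 mg/mL protein) in 100 mM potassium phosphate, pH 7.4, after 10 min preincubation; started with NADPH regenerating system. Sampled at 0–30 min, quenched with cold ACN; remaining parent quantified by LC-MS/MS, with no-NADPH controls.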
In general terms: Liver microsomes are vesicles of endoplasmic reticulum, rich in cytochrome P450 enzymes.

In data set [3] the test system is HBsAg in HBV-infected PHH. The data set can be described thus: Cryopreserved primary human hepatocytes (PHH) HBV infection assay, extracellular HBsAg (CLIA). Format: cell-based. Particulars: Hepatitis B virus, Hepatocyte, 216 h, read-out: HBsAg IC50, Cryopreserved PHH infected with HBV, 9 days post-compound treatment, extracellular HBsAg. As to the method:
This assay is used to confirm the anti-HBV effect of the compounds in HBV PHH infection assay. Cryopreserved PHH (BioreclamationIVT, Lot YJM) was thawed at 37° C. and gently transferred into pre-warmed InVitroGRO HT medium (BioreclamationIVT, Cat. S03317). The mixture was centrifuged at 70 relative centrifugal force (RCF) for 3 minutes at RT, and the supernatant was discarded. Pre-warmed InVitroGRO CP medium (BioreclamationIVT, Cat #S03316) was added to the cell pellet to gently re-suspend cells. The cells were seeded at the density of 5.8×10^4 cells per well to collagen I coated 96-well plate (Gibco, Cat. A1142803) with the InVitroGRO CP medium. All plates were incubated at 37° C. with 5% CO2 and 85% humidity.
At 20 hours after plating, the medium was changed to PHH culture medium (Dulbecco's Modified Eagle Medium (DMEM)/F12 (1:1) (Gibco, Cat. 11320-033), 10% fetal bovine semm (Gibco Cat. 10099141), 100 U/mL penicillin, 100 μg/mL streptomycin (Gibco, Cat. 151401-122), […] (Invitrogen Cat. PHG0311L), 20 ng/mL dexamethasone (Sigma, Cat. D4902) and 250 ng/mL human recombinant insulin (Gibco, Cat. 12585-014)). And the cells were incubated at 37° C. with 5% CO2 and 85% humidity for 4 hours. The medium was then changed to pre-warmed PHH culture medium containing 4% polyethylene glycol (PEG) MW8000 (Sigma, Cat. P1458-50 ML) and 1% DMSO (Sigma, Cat. D2650). 5.8×10^6 genomic equivalents of HBV were added into the medium.
At 24 hours post-infection, the cells were gently washed with PBS and refreshed with PHH culture medium supplemented with 1% DMSO, and 0.25 mg/mL Matrix gel (Corning, Cat. 356237) at 200 μL per well. All plates were immediately placed in at 37° C. CO2 incubator.
24 hours later, serial dilutions of compounds made with DMSO were further diluted with the same culture medium (PHH culture medium supplemented with 1% DMSO and 0.25 mg/mL Matrix gel as described above) before they were added to the cells to reach desired final compound concentrations and 1% DMSO concentration. The medium containing the compounds were refreshed every three days.
At 9 days post-compound treatment, extracellular HBsAg level were measured with Chemiluminescence Immuno Assay (CLIA) kit (Autobio, HBsAg Quantitative CLIA). Extracellular HBV DNA was extracted by MagNA Pure 96 system (Roche) and then determined by quantitative PCR with the following primers and probe: […]
HBsAg IC50 and HBV DNA IC50 values were derived from the dose-response curve using 4 parameter logistic curve fit method. The compounds of formula (I) have HBsAg IC50<20 μM, particularly <1 μM; and HBV DNA IC50<50 μM.

As for `O=C(O)CCOc1cc(C(F)(F)F)ccc1-c1cc(=O)c2cccc(Cl)c2o1` [Example A001, 3-[2-(8-chloro-4-oxo-chromen-2-yl)-5-(trifluoromethyl)phenoxy]propanoic acid], the results for the IC50 in data set [1] and in data set [3] were 1640 nM and 1190 nM, respectively. Also, the “Clearance of Human microsome” value in data set [2] worked out at 10.0 mL/min/kg.
As for `O=C(O)CCOc1cc(Br)ccc1-c1cc(=O)c2cccc(Cl)c2o1` [Example A004, 3-[5-bromo-2-(8-chloro-4-oxo-chromen-2-yl)phenoxy]propanoic acid], the IC50 in data set [1] is 374 nM; in data set [3], 6610 nM. Also, the “Clearance of Human microsome” value in data set [2] came out at 6.15 mL/min/kg.
Turning to `Cc1cc(-c2cc(=O)c3cccc(Cl)c3o2)c(OCCC(=O)O)cc1Cl` [Example A005, 3-[5-chloro-2-(8-chloro-4-oxo-chromen-2-yl)-4-methyl-phenoxy]propanoic acid], the IC50 came to 1370 nM in data set [1] and 553 nM in data set [3]. In addition, in data set [2], the “Clearance of Human microsome” value was determined as 6.66 mL/min/kg.
Take `COc1cc(-c2cc(=O)c3cccc(Cl)c3o2)c(OCCC(=O)O)cc1Br` [Example A007, 3-[5-bromo-2-(8-chloro-4-oxo-chromen-2-yl)-4-methoxy-phenoxy]propanoic acid]: the concentration for half-maximal inhibition (IC50) is 3150 nM in data set [1] and 2730 nM in data set [3]. The “Clearance of Human microsome” value in data set [2] is recorded as 6.15 mL/min/kg.
For `COc1cc(-c2cc(=O)c3cccc(Cl)c3o2)c(OCCC(=O)O)cc1Cl` [Example A008, 3-[5-chloro-2-(8-chloro-4-oxo-chromen-2-yl)-4-methoxy-phenoxy]propanoic acid], in that order: 2260 nM, 948 nM and 6.15 mL/min/kg.
Consider `O=C(O)CCOc1cc(OC(F)(F)F)ccc1-c1cc(=O)c2cccc(Cl)c2o1` [Example A009, 3-[2-(8-chloro-4-oxo-chromen-2-yl)-5-(trifluoromethoxy)phenoxy]propanoic acid], for which the concentration for half-maximal inhibition (IC50) in data set [1] is 403 nM; in data set [3] it was 1480 nM. The “Clearance of Human microsome” value in data set [2] is recorded as 6.57 mL/min/kg.
In the case of `COc1cc(OCCC(=O)O)c(-c2cc(=O)c3cccc(Cl)c3o2)cc1OC` [Example A010, 3-[2-(8-chloro-4-oxo-chromen-2-yl)-4,5-dimethoxy-phenoxy]propanoic acid], the IC50 in data set [1] stood at 1400 nM; in data set [3] it was 3000 nM. Besides, the “Clearance of Human microsome” value in data set [2] was found to be 6.15 mL/min/kg.
For `Cc1cc(-c2cc(=O)c3cccc(Cl)c3o2)c(OCCC(=O)O)cc1OC(F)(F)F` [Example A017, 3-[2-(8-chloro-4-oxo-chromen-2-yl)-4-methyl-5-(trifluoromethoxy)phenoxy]propanoic acid], in that order: 3170 nM, 1840 nM and 9.98 mL/min/kg.
As for `O=C(O)CCOc1cc(OC(F)(F)F)ccc1-c1cc(=O)c2cccc(Br)c2o1` [Example A022, 3-[2-(8-bromo-4-oxo-chromen-2-yl)-5-(trifluoromethoxy)phenoxy]propanoic acid], the figures for the IC50 in data set [1] and in data set [3] were 983 nM and 754 nM, respectively. Also, the “Clearance of Human microsome” value in data set [2] is reported as 6.15 mL/min/kg.
Turning to `Cc1ccc(-c2cc(=O)c3cccc(Br)c3o2)c(OCCC(=O)O)c1` [Example A024, 3-[2-(8-bromo-4-oxo-chromen-2-yl)-5-methyl-phenoxy]propanoic acid], the IC50 in data set [1] came to 570 nM; in data set [3], 4090 nM. Further, the “Clearance of Human microsome” value in data set [2] was 6.61 mL/min/kg.
Consider `O=C(O)CCOc1cc(Br)cnc1-c1cc(=O)c2cccc(Cl)c2o1` [Example A026, 3-[[5-bromo-2-(8-chloro-4-oxo-chromen-2-yl)-3-pyridyl]oxy]propanoic acid], for which the IC50 in data set [1] and in data set [3] was 2970 nM in each case. In addition, the “Clearance of Human microsome” value in data set [2] is 6.15 mL/min/kg.
On to `CC(CC(=O)O)Oc1cc(C(F)(F)F)ccc1-c1cc(=O)c2cccc(Cl)c2o1` (stereo not drawn) [Example A039, 3-[2-(8-chloro-4-oxo-chromen-2-yl)-5-(trifluoromethyl)phenoxy]butanoic acid], for which the figures for the IC50 in data set [1] and in data set [3] were 142 nM and 7080 nM, respectively. Also, in data set [2], the “Clearance of Human microsome” value came to 6.37 mL/min/kg.
For the molecule `CC(CC(=O)O)OC(=O)CC(C)Oc1cc(C(F)(F)F)ccc1-c1cc(=O)c2cccc(Cl)c2o1` (stereo not drawn) [Example A040, 3-[3-[2-(8-chloro-4-oxo-chromen-2-yl)-5-(trifluoromethyl)phenoxy]butanoyloxy]butanoic acid], the IC50 in data set [1] came to 525 nM; in data set [3], 7940 nM. In addition, the “Clearance of Human microsome” value in data set [2] was determined as 6.15 mL/min/kg.
For `COc1cc(-c2cc(=O)c3cccc(Cl)c3o2)c(OCCC(=O)O)cc1C(F)(F)F` [Example A043, 3-[2-(8-chloro-4-oxo-chromen-2-yl)-4-methoxy-5-(trifluoromethyl)phenoxy]propanoic acid], in that order: 2250 nM, 6690 nM and 6.15 mL/min/kg.
On to `Cc1cc(-c2cc(=O)c3cccc(Cl)c3o2)c(OCCC(=O)O)cc1C(F)(F)F` [Example A044, 3-[2-(8-chloro-4-oxo-chromen-2-yl)-4-methyl-5-(trifluoromethyl)phenoxy]propanoic acid], for which the IC50 was determined as 2520 nM in data set [1] and 1770 nM in data set [3]. In addition, in data set [2], the “Clearance of Human microsome” value was 6.15 mL/min/kg.
`Cc1ccc(-c2cc(=O)c3cccc(Cl)c3o2)c(OCC(=O)O)c1` [Example A049, 2-[2-(8-chloro-4-oxo-chromen-2-yl)-5-methyl-phenoxy]acetic acid]: the figures for the IC50 in data set [1] and in data set [3] were 87.2 nM and 1260 nM, respectively. The “Clearance of Human microsome” value in data set [2] is 6.15 mL/min/kg.
For `O=C(O)CCCOc1cc(C(F)(F)F)ccc1-c1cc(=O)c2cccc(Cl)c2o1` [Example A052, 4-[2-(8-chloro-4-oxo-chromen-2-yl)-5-(trifluoromethyl)phenoxy]butanoic acid], in that order: 213 nM, 6910 nM and 8.01 mL/min/kg.
For `O=C(O)CCCOc1cc(OC(F)(F)F)ccc1-c1cc(=O)c2cccc(Cl)c2o1` [Example A053, 4-[2-(8-chloro-4-oxo-chromen-2-yl)-5-(trifluoromethoxy)phenoxy]butanoic acid], in that order: 491 nM, 3570 nM and 7.66 mL/min/kg.
`Cc1cc(-c2cc(=O)c3cccc(Cl)c3o2)c(OCCCC(=O)O)cc1Br` [Example A054, 4-[5-bromo-2-(8-chloro-4-oxo-chromen-2-yl)-4-methyl-phenoxy]butanoic acid]: the IC50 in data set [1] came out at 1470 nM; in data set [3], 4210 nM. Further, in data set [2], the “Clearance of Human microsome” value came out at 6.15 mL/min/kg.
Regarding `COc1cc(OCCCC(=O)O)c(-c2cc(=O)c3cccc(Cl)c3o2)cc1OC` [Example A056, 4-[2-(8-chloro-4-oxo-chromen-2-yl)-4,5-dimethoxy-phenoxy]butanoic acid], the IC50 in data set [1] amounted to 3110 nM; in data set [3] it was 9210 nM. For the same molecule, the “Clearance of Human microsome” value in data set [2] worked out at 6.15 mL/min/kg.
`Cc1cc(-c2cc(=O)c3cccc(Cl)c3o2)c(OCCCC(=O)O)cc1Cl` [Example A057, 4-[5-chloro-2-(8-chloro-4-oxo-chromen-2-yl)-4-methyl-phenoxy]butanoic acid]: the figures for the IC50 in data set [1] and in data set [3] were 1330 nM and 9760 nM, respectively. Also, the “Clearance of Human microsome” value in data set [2] is reported as 6.15 mL/min/kg.
